Assay results as given in patent US10308631B2, “Selective anti-cancer compounds” (NATIONAL UNIVERSITY OF SINGAPORE, priority 2015, dated 2019).

What was measured:
Type in all cases: cell-based, human
[1] = tested on: p53 and p21 in oncogene-transformed BJ cells; assay: Immunoblot analysis of p53 and p21; details: 2.5 and 5 μM, 24 h or 48 h
Description: (§1) A: is output from a FACS analysis of isogenic-non-transformed, without (panels a-c) (WT) or with (panels d-f) shRNA-mediated knockdown of p53 (p53KD), and oncogene-transformed BJ cells (panels g-i), each treated with 0, 5 or 2.5 μM Compound 1 (a131) for 24 h. Cells were doubly stained with PI (horizontal axis) and BrdU (vertical axis). The BrdU-positive population in panels a-c are indicated as arrows. B: is a diagrammatic representation of an immunoblot analysis showing isogenic non-transformed (normal) and oncogene-transformed BJ cells (transformed) treated with Compound 1 (a131) at 0, 2.5 or 5 μM for 24 h or 48 h. Cells were harvested and total lysates were analysed by detecting p53 and p21. Antibodies raised against β-actin were used as an internal loading control. C and D are histograms showing the percentage of bromodeoxyuracil (BrdU)-positive non-transformed (normal) BJ cells. C: Cells were treated with Group 1 Compound 1 (a131) at 2.5 and 5 μM, Compound 23 (b36) at 2.5 and 5 μM, and Compound 21 (b35) at 5 μM, and Group 2 Compound 25 (a166) at 2.5 and 5 μM, for 24 h. Cells were doubly stained with propidium iodide (PI) and BrdU, and subjected to FACS analysis. The BrdU-positive population are plotted as bars. […]

[2] = tested on: p53 and p21 in non-transformed BJ cells; assay: Immunoblot analysis of p53 and p21; details: 2.5 and 5 μM, 24 h or 48 h
Description: as §1

[3] = tested on: LC3 (LC3-II/LC3-I) in HeLa cells; assay: Immunoblot analysis of LC3 in HeLa cells; details: 0.625-10 μM, 6 h
Description: FIG. 1 is a diagrammatic representation of an immunoblot analysis showing the dual inhibition of the autophagic process and mitotic progression by Compound 1 (a131). HeLa cells were treated with the indicated μM concentration of Compound 1 (a131) or chloroquine for 6 h. Cells were harvested and total lysates were analysed by detecting the mitotic marker phospho-histone H3 at serine 10 (pH3 (Ser10)) and the autophagosome marker LC3. The band intensity ratios of LC3-II/LC3-I as compared to DMSO control (lane 1, 0 μM chloroquine, and lane 7, 0 μM a131) are indicated (Ratio). Antibodies raised against β-actin were used as an internal loading control.
The ability of Compound 1 to inhibit lysosome function was examined using immunoblotting. HeLa cervical cancer cells were cultured in Dulbecco's modified Eagle's medium (DMEM) supplemented with 10% Fetal Bovine Serum (FBS, Thermo Scientific). […]
Defects in lysosome function and inhibition of autophagy can be measured by accumulation of LC3-phosphatidylethanolamine conjugated non-soluble form (LC3-II), which are converted from soluble LC3-I. Thus, antibodies raised against LC3 (Cell Signaling, Cat#4108) were used to determine lysosomal function and integrity. […] The inhibitory ability of Compound 1 was also quantitatively compared to CQ.

[4] = tested on: non-transformed normal BJ cells; assay: Immunofluorescence of chromosome alignment, bipolar spindle and spindle poles; details: 2.5 μM, 4 h, then MG132 1.5 h
Description: (§2) A: is a histogram showing isogenic non-transformed and oncogene-transformed BJ cells stably expressing GFP-tagged Histone H2B as a marker for chromosome segregation, treated with Compound 1 (a131) at 2.5 μM final concentration. Mitotic progression of these cells was monitored every 10 min. More than 100 cells per condition were quantified and classified into 3 groups: no, mild and severe mitotic defects with prolonged mitotic arrest, chromosome mis-segregation and failure in cytokinesis. […] The bars represent 5 μm in length. C: is a histogram showing quantification of defects in spindle formation and chromosome alignments (n>100 cells per condition).
(§3) To investigate why massive chromosome mis-segregation occurs in oncogene-transformed BJ cells when treated with Compound 1, but not in non-transformed BJ cells, the effects of Compound 1 were studied on isogenic BJ cell lines (transformed and non-transformed) that stably express GFP-Histone H2B. Cells cultured in accordance with Biology Example 3 were treated with Compound 1 at 2.5 μM final concentration for 4 h followed by MG132 for another 1.5 h to allow chromosome alignment. […]

[5] = tested on: oncogene-transformed BJ cells; assay: as above; details: 2.5 μM, 4 h, then MG132 1.5 h
Description: as §2, §3

N#C/C(=C\c1cccc2cnccc12)c1c[nH]c2ccccc12 [Compound 1, (Z)-2-(1H-indol-3-yl)-3-(isoquinolin-5-yl)acrylonitrile] was tested, and the “protein expression levels of p53 and p21” value [1] was “did not alter the protein expression levels of p53 and p21”, the “protein levels of p53 and p21” value [2] was “increased protein levels of p53” and the “levels of LC3-II” value [3] was “markedly increased the levels of LC3-II”. For the same compound, the “chromosome alignment and spindle formation” value [4] was “did not show marked defects in chromosome alignment” and the “chromosome alignment and spindle formation” value [5] was “massively misaligned chromosomes with the formation of multipolar spindles”.
